Data on one molecule can be found in paper PMC8113240 (Scientific Reports, 2021).

The assay has as its target T1, FK506 binding protein 12 (FKBP12) (Homo sapiens, UniProt P42345+P62942).
T1 construct: gene FKBP1A; pAsh-FKBP12 co-transfected with phAG-mTOR in HeLa cells; with mTOR
Briefly: Fluoppi cell assay of FKBP12-mTOR ternary complex formation in HeLa cells. Format: cell-based.

T1 sequence (P62942 2-108, other chains not shown): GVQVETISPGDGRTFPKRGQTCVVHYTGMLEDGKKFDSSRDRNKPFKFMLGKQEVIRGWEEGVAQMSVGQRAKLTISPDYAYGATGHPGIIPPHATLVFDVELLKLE

As usually defined, the EC50 is the concentration that produces a half-maximal response. A lower EC50 goes with higher potency in that assay. In the case of `COC1CC(O)CC(=O)CC(=O)N2CCCCC2C(=O)OC(C(C)CC2CCC(O)C(OC)C2)CC(=O)C(C)C=C(C)C(O)C(OC)C(=O)C(C)CC(C)C=CC=CC=C1C` (mixture of isomers) [compound 1, 1], the EC50 came to 1.88 µM.
